Usually pEC50 stands for the negative decadic logarithm of the EC50, by convention in mol/L. The pKi is the negative decadic logarithm of the Ki, by convention in mol/L.

We go through two molecules from patent US8399439B2, “2-methylene-19,26-dinor-(20S,22E,25R)-vitamin D analogs” (Wisconsin Alumni Research Foundation, priority 2008, dated 2013).

Assay [1] has as its system vitamin D-deficient rats. Nature of the assay: Bone calcium mobilization (serum calcium). The class given is in vivo, rat. The following applies: rats on low calcium diet (0.02%), FIG. 4. The protocol: (§1) Male, weanling Sprague-Dawley rats were placed on Diet 11 (0.47% Ca) diet+AEK oil for one week followed by Diet 11 (0.02% Ca)+AEK oil for 3 weeks. The rats were then switched to a diet containing 0.47% Ca for one week followed by two weeks on a diet containing 0.02% Ca. Dose administration began during the last week on 0.02% calcium diet. Four consecutive ip doses were given approximately 24 hours apart. Twenty-four hours after the last dose, blood was collected from the severed neck and the concentration of serum calcium determined as a measure of bone calcium mobilization. The first 10 cm of the intestine was also collected for intestinal calcium transport analysis using the everted gut sac method.
Calcium mobilization from bone and intestinal calcium absorption in vitamin D-deficient animals. Using vitamin D-deficient rats on a low calcium diet (0.02%), the activities of SOR-1 and 1,25(OH)2D3 in intestine and bone were tested.

Assay [2] relates to HL-60 cells. Nature of the assay: HL-60 cell differentiation (nitro blue tetrazolium reduction). The class given is cell-based, human. The following applies: for pEC50: HL-60 cells, 4 days, FIG. 2. The method, then:
The study drugs were dissolved in ethanol and the concentrations determined using UV spectrophotometry. Serial dilutions were prepared so that a range of drug concentrations could be tested without changing the final concentration of ethanol (≦0.2%) present in the cell cultures.
Human promyelocytic leukemia (HL60) cells were grown in RPMI-1640 medium containing 10% fetal bovine serum. The cells were incubated at 37° C. in the presence of 5% CO2.
HL60 cells were plated at 1.2×10^5 cells/ml. Eighteen hours after plating, cells in duplicate were treated with drug. Four days later, the cells were harvested and a nitro blue tetrazolium reduction assay was performed (Collins et al., 1979; J. Exp. Med. 149:969-974). The percentage of differentiated cells was determined by counting a total of 200 cells and recording the number that contained intracellular black-blue formazan deposits. Verification of differentiation to monocytic cells was determined by measuring phagocytic activity (data not shown).

For assay [3], the system named is 24-hydroxylase (24Ohase) gene promoter. The experiment in a line: In vitro transcription assay, luciferase reporter in ROS 17/2.8 (bone) cells. The class given is cell-based. Particulars: for pEC50: ROS 17/2.8 cells, 24-hydroxylase promoter-luciferase, 16 h, FIG. 3, read-out: EC50, transcriptional activity in bone cells. The method, then: Transcription activity was measured in ROS 17/2.8 (bone) cells that were stably transfected with a 24-hydroxylase (24Ohase) gene promoter upstream of a luciferase reporter gene (Arbour et al., 1998). Cells were given a range of doses. Sixteen hours after dosing the cells were harvested and luciferase activities were measured using a luminometer.
RLU=relative luciferase units.
On the technique in general: Reporter assays use an easily measured gene product as a stand-in for the process of interest.

Assay [4] addresses T1, full-length recombinant rat vitamin D receptor (Rattus norvegicus, UniProt P13053).
T1 construct: Full-length recombinant rat receptor was expressed in E. coli; His tag (C); made in house; host or cells: E. coli BL21 (DE3) Codon Plus RIL
T1 sequence (P13053 1-423): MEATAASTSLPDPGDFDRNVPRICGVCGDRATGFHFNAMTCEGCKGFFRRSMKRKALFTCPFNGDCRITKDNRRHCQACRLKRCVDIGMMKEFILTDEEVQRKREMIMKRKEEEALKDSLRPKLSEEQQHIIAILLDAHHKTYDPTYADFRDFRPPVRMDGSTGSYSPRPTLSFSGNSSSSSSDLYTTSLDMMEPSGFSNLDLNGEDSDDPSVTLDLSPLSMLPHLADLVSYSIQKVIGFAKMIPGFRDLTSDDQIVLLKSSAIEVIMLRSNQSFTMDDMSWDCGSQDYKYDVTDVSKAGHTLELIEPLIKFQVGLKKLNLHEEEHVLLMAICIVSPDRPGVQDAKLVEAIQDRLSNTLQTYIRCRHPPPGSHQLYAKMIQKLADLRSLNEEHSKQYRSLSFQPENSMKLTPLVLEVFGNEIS
The experiment in a line: Vitamin D receptor competitive binding with [3H]-1,25(OH)2D3. Particulars: full-length recombinant rat VDR; FIG. 1; read-out: Ki, competition with [3H]-1,25(OH)2D3 for binding to vitamin D receptor. The protocol:
Full-length recombinant rat receptor was expressed in E. coli BL21 (DE3) Codon Plus RIL cells and purified to homogeneity using two different column chromatography systems. The first system was a nickel affinity resin that utilizes the C-terminal histidine tag on this protein. The protein that was eluted from this resin was further purified using ion exchange chromatography (S-Sepharose Fast Flow). Aliquots of the purified protein were quick frozen in liquid nitrogen and stored at −80° C. until use. For use in binding assays, the protein was diluted in TEDK50 (50 mM Tris, 1.5 mM EDTA, pH7.4, 5 mM DTT, 150 mM KCl) with 0.1% Chaps detergent. The receptor protein and ligand concentration were optimized such that no more than 20% of the added radiolabeled ligand was bound to the receptor.
Radiolabeled and unlabeled ligands were added to 100 mcl of the diluted protein at a final ethanol concentration of ≦10%, mixed and incubated overnight on ice to reach binding equilibrium. The following day, 100 mcl of hydroxylapatite slurry (50%) was added to each tube and mixed at 10-minute intervals for 30 minutes. The hydroxylapaptite was collected by centrifugation and then washed three times with Tris-EDTA buffer (50 mM Tris, 1.5 mM EDTA, pH 7.4) containing 0.5% Titron X-100. […] Total binding was determined from the tubes containing only radiolabeled ligand.

Assay [5] has as its system vitamin D-deficient rats. The experiment in a line: Intestinal calcium transport (everted gut sac method). In kind it is in vivo, rat. The following applies: FIG. 5. The protocol: as §1
Intestinal calcium transport was evaluated in the same group of animals using the everted gut sac method (FIG. 5).

[6] abbreviates: 780 pmol/day ip for 4 consecutive days.
The mark [7] stands for this setting: 2,340 pmol/day ip for 4 consecutive days.
[8] abbreviates: fold more active than 1α,25-dihydroxyvitamin D3.

pEC50, pKi: −log10 of the molar value.

For `C=C1/C(=C\C=C2/CCC[C@]3(C)[C@@H]([C@H](C)CCCC(C)(C)O)CC[C@@H]23)C[C@@H](O)C[C@@H]1O` [1α,25-dihydroxyvitamin D3, reference compound], in assay [1] (setting [6]), the bone calcium mobilization entry is listed as “significant activity”. In addition, the serum calcium levels entry in assay [1] (all dosages) is given as “increased serum calcium levels at all dosages”. Further, the pEC50 in assay [2] was 8.70; in assay [3], 9.70.

Take `C=C1[C@H](O)CC(=C/C=C2\CCC[C@]3(C)[C@@H]([C@@H](C)/C=C/C[C@@H](C)O)CC[C@@H]23)C[C@H]1O` [SOR-1, 2-methylene-19,26-dinor-(20S,22E,25R)-1α,25-dihydroxyvitamin D3]: in assay [1] (setting [7]), the bone calcium mobilization result is “did not result in any mobilization of bone calcium”. Also, the pKi in assay [4] was 10.00. Moreover, the entries for the “intestinal calcium transport activity” value in assay [5] (setting [6]) and in assay [5] (setting [7]) were “almost no activity as compared to 1,25(OH)2D3” and “activity similar to 1,25(OH)2D3”, respectively. The negative logarithm of the EC50 (pEC50) in assay [2] (Homo sapiens, 96 h) was 9.05; in assay [3], 10.10. Also, in assay [2] (setting [8]), the “HL-60 cell differentiation activity relative to 1α,25-dihydroxyvitamin D3” value is “about 3 times”. Also, the “transcriptional activity in bone cells relative to 1α,25-dihydroxyvitamin D3” value in assay [3] (setting [8]) is reported as “about 3 times”.
